Where two headings read alike, the source gives them in different places.
Key:
memapsin 1 = target: T1, memapsin 1 (Homo sapiens, UniProt Q9Y5Z0); assay: Inhibition of memapsin 1 proteolytic activity, fluorogenic substrate FS-2; format: biochemical; conditions: for % Inhibition Mep1: enzyme concentration equals the compound concentration
T1 construct: pET-11 vector-derived residues 1-14 of promemapsin 1-T1 (N, cleaved yes); made in house; host or cells: E. coli
T1 sequence (Q9Y5Z0 63-466 limits assumed): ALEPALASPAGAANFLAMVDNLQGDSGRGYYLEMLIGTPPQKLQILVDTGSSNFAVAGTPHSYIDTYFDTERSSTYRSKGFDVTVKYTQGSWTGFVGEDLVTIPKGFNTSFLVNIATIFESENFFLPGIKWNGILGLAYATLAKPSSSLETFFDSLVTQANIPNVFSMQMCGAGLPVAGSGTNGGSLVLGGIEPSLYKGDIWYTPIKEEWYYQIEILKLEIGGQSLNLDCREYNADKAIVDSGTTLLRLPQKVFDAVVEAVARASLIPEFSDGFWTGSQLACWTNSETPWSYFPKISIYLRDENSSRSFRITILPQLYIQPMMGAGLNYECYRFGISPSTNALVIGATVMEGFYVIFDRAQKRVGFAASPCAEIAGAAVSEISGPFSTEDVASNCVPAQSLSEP
Method: Vi/Vo depicts the ratio of initial cleavage velocities of the substrate FS-2 (Ermolieff, et al., Biochemistry […]:12450-12456 (2000)) by memapsin 1 or memapsin 2 in the absence (Vo) or presence (Vi) of a compound of the invention. […] The Vi/Vo values depicted in Table 1 were determined at conditions under which the enzyme and inhibitor concentrations were equal (e.g., about 80 nM, 100 nM).
The relationship of Ki (independent of substrate concentration) to Kiapp is a function of substrate concentration in the assay and the Km for cleavage of the substrate by either memapsin 1 or memapsin 2 by the relationship:
An aliquot of the inhibitor of known concentration in DMSO was diluted into 1.8 ml 0.1 M NaOAc, pH 4.0. DMSO and added to a final concentration of 10% (v/v), and memapsin 2 (final concentration of 80 nM), followed by a 20 minute equilibration at 37° C. Compounds were evaluated for the ability to inhibit memapsin 1 and memapsin 2 at concentrations between about 10 nM and about 10 μm of inhibitor.
The relationship of Ki (independent of substrate concentration) to Kiapp is a function of substrate concentration in the assay and the Km for cleavage of the substrate by either memapsin 1 or memapsin 2 by the relationship: […]

memapsin 2 = target: T2, memapsin 2 (Homo sapiens, UniProt P56817); assay: Inhibition of memapsin 2 proteolytic activity, fluorogenic substrate FS-2; format: biochemical; conditions: for % Inhibition Mep2: enzyme concentration equals the compound concentration; for % Inh (M1/M2): ratio of % inhibition memapsin 1 / memapsin 2, 1 or less = greater inhibition of memapsin 2; for Vi/Vo: ratio of initial cleavage velocities of FS-2 with/without compound, enzyme and inhibitor concentrations equal (e.g., about 80 nM, 100 nM)
T2 construct: pET-11 vector-derived residues 1-15 of promemapsin 2-T1 (N, cleaved yes); made in house; host or cells: E. coli
T2 sequence (P56817 41-454 limits assumed): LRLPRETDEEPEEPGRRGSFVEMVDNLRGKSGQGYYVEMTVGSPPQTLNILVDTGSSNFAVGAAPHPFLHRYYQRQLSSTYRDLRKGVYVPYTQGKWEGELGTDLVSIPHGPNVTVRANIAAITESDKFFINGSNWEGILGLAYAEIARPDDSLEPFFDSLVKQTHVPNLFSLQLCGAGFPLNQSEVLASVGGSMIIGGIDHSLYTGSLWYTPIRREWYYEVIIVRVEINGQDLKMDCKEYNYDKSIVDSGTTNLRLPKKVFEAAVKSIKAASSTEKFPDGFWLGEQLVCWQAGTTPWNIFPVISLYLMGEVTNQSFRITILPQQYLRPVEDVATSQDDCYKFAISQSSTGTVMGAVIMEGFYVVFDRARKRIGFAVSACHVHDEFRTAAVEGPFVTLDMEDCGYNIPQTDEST
In short: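 Spontaneously activated memapsin 2 (80 nM final) equilibrated with inhibitor (about 10 nM–10 μM) in 0.1 M NaOAc pH 4.0 with 10% DMSO for 20 min at 37 °C, with fluorogenic substrate FS-2. Ki converted from Ki apparent using substrate concentration and Km.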

[1] = memapsin 2, apparent Ki in presence of substrate FS-2, read-out: Ki app
[2] = memapsin 2, independent of substrate, converted from Ki apparent, read-out: Ki
[3] = Ki, [I] < 100, memapsin 2, [I] < 100 (nM)

Structure (SMILES)	Ki (memapsin 2; [1]) [nM]	Ki (memapsin 2; [2]) [nM]	Vi/Vo (memapsin 2)	further results
CCCCNC(=O)[C@@H](NC(=O)[C@H](C)C[C@H](O)[C@H](CC(C)C)NC(=O)[C@H](CCSC)NC(=O)OCn1nc(C)cc1C)C(C)C [MMI-167]	36.6	22.8	0.56	% Inhibition Mep1 (memapsin 1): 8%; % Inhibition Mep2 (memapsin 2): 44%; % Inh (M1/M2) (memapsin 2): 0.18
CSCC[C@H](NC(=O)OCCn1nc(C)cc1C)C(=O)N[C@@H](CC(C)C)[C@@H](O)C[C@@H](C)C(=O)N[C@@H](CC(C)C)C(=O)NCC(C)C [MMI-176]	111	69.1	1	% Inhibition Mep1 (memapsin 1): 0%; % Inhibition Mep2 (memapsin 2): 47%; % Inh (M1/M2) (memapsin 2): 0
CSCC[C@H](NC(=O)C(C)Cn1nc(C)cc1C)C(=O)N[C@@H](CC(C)C)[C@@H](O)C[C@@H](C)C(=O)N[C@H](C(=O)NCC(C)C)C(C)C (some centres unmarked) [MMI-196]	28.8	18	–	Ki (memapsin 1; Table 9, read-out: Ki apparent Mep1): 351 nM; Ki (memapsin 2; Table 9, read-out: Ki apparent Mep2): 28.8 nM
CSCC[C@H](C[C@H](O)[C@H](Cc1ccccc1)NC(=O)[C@H](CCSC)NC(=O)[C@@H](NC(=O)OC(C)(C)C)C(C)C)C(=O)N[C@H](C(=O)NCc1ccccc1)C(C)C [MMI-201]	58	36.2	–	–
C=CCCOC(=O)N[C@H](C(=O)N[C@@H](CC(=O)NCC=C)C(=O)N[C@@H](CC(C)C)[C@@H](O)C[C@@H](C)C(=O)N[C@H](C(=O)NCc1ccccc1)C(C)C)C(C)C [MMI-151]	–	–	0.56	–
COc1cccc(C(=O)N[C@@H](CCSC)C(=O)N[C@@H](CC(C)C)[C@@H](O)C[C@@H](C)C(=O)N[C@@H](CC(C)C)C(=O)NC(C)C)c1 [MMI-209]	1300	812	–	–
CSCC[C@H](NC(=O)OCc1cccnc1)C(=O)N[C@@H](CC(C)C)[C@@H](O)C[C@@H](C)C(=O)N[C@H](C(=O)NCc1ccccc1)C(C)C [MMI-039]	1400	873	–	–
CSCC[C@H](NC(=O)[C@@H](NC(=O)OC(C)(C)C)C(C)C)C(=O)N[C@@H](CC(C)C)[C@@H](O)C[C@H](C)NC(=O)[C@H](NC(=O)OCc1ccccc1)C(C)C [MMI-169]	–	–	1.1	–
CSCC[C@H](NC(=O)OCc1ccnn1C)C(=O)N[C@@H](CC(C)C)[C@@H](O)C[C@@H](C)C(=O)N[C@H](C(=O)NCC(C)C)C(C)C [MMI-186]	217	136	–	–
CCC[C@H](C[C@H](O)[C@H](CC(C)C)NC(=O)[C@H](CSC)NC(=O)O[C@H]1CO[C@H]2OCC[C@H]21)C(=O)N[C@H](C(=O)NCc1ccccc1)C(C)C [MMI-028]	9870	6170	–	–
CC(C)C[C@H](NC(=O)[C@H](CCS(C)(=O)=O)NC(=O)[C@@H](NC(=O)OC(C)(C)C)C(C)C)[C@@H](O)C[C@@H](C)C(=O)N[C@@H]1c2ccccc2C[C@@H]1O [MMI-054]	–	293000	–	–
CC(C)C[C@H](NC(=O)[C@H](CS(C)(=O)=O)NC(=O)OCc1cccnc1)[C@@H](O)C[C@@H](C)C(=O)N[C@H](C(=O)NCc1ccccc1)C(C)C [MMI-142]	–	–	0.92	–
CC(C)C[C@H](NC(=O)[C@H](CS(C)(=O)=O)NC(=O)OC(C)(C)C)[C@@H](O)C[C@@H](C)C(=O)N[C@H](C(=O)NCc1ccccc1)C(C)C [MMI-024]	1440	902	–	–
CSCC[C@H](NC(=O)[C@@H](NC(=O)OC(C)(C)C)C(C)C)C(=O)N[C@@H](CC(C)C)[C@@H](O)C[C@@H](C)C(=O)N[C@@H](C(C)C)C1CCCCO1 (some centres unmarked) [MMI-131]	92900	58100	–	–
COc1ccccc1C(=O)N[C@@H](CCSC)C(=O)N[C@@H](CC(C)C)[C@@H](O)C[C@@H](C)C(=O)N[C@@H](CC(C)C)C(=O)NC(C)C [MMI-207]	1580	988	–	Ki (memapsin 2; [3]): 1830 nM
CC(C)C[C@H](NC(=O)[C@H](CCS(C)(=O)=O)NC(=O)OCc1ccco1)[C@@H](O)C[C@@H](C)C(=O)N[C@H](C(=O)NCc1ccccc1)C(C)C [MMI-136]	–	–	0.87	–
CC(C)C[C@H](NC(=O)OC(C)(C)C)C(=O)N[C@@H](CC1CCCO1)C(=O)N[C@@H](CC(C)C)[C@@H](O)C[C@@H](C)C(=O)N[C@@H](CC(C)C)C(=O)NC(C)C (some centres unmarked) [MMI-215]	30.9	19.3	–	–

Structure (SMILES)	Ki (memapsin 2; [1]) [nM]	Ki (memapsin 2; [2]) [nM]	Vi/Vo (memapsin 2)	further results
CCCCNC(=O)[C@H](CC(C)C)NC(=O)[C@H](C)C[C@H](O)[C@H](CC(C)C)NC(=O)[C@H](CCSC)NC(=O)[C@H](CC(C)C)NC(=O)OC(C)(C)C [MMI-160]	4.15	2.59	0.19	–
CSCC[C@H](NC(=O)OCCn1nc(C(C)(C)C)cc1C(C)(C)C)C(=O)N[C@@H](CC(C)C)[C@@H](O)C[C@@H](C)C(=O)N[C@@H](CC(C)C)C(=O)NCC(C)C [MMI-177]	–	–	1.16	–
CSCC[C@H](NC(=O)[C@@H](NC(=O)OC(C)(C)C)C(C)C)C(=O)N[C@@H](CC(C)C)[C@@H](O)C[C@@H](C)C(=O)N[C@@H](CC(C)C)C(=O)N1CCN(C)CC1 [MMI-184]	194	121	0.6	Ki (memapsin 2; [3]): 64 nM
CC(C)C[C@H](NC(=O)[C@H](CC(N)=O)NC(=O)OC(C)(C)C)[C@@H](O)C[C@@H](C)C(=O)N[C@H](C(=O)NCc1ccccc1)C(C)C [MMI-011]	4880	3100	–	–
CSCC[C@H](NC(=O)[C@@H](NC(=O)OC(C)(C)C)C(C)C)C(=O)N[C@@H](CC(C)C)[C@@H](O)C[C@@H](C)C(=O)N[C@@H](C(C)C)C1CC(Cc2ccccc2)CCO1 (some centres unmarked) [MMI-146-A]	–	–	1.07	–
CSCC[C@H](NC(=O)[C@@H](NC(=O)OC(C)(C)C)C(C)C)C(=O)N[C@@H](CC(C)C)[C@@H](O)C[C@@H](C)C(=O)N[C@@H]1CCCC[C@@H]1O [MMI-059]	66300	41400	–	–
CC(C)C[C@H](NC(=O)[C@H](C)C[C@H](O)[C@H](CC(C)C)NC(=O)[C@H](CCS(C)(=O)=O)NC(=O)[C@@H](NC(=O)OC(C)(C)C)C(C)C)C(=O)NC1Cc2ccccc2C1 [MMI-067]	73.5	45.9	–	–
CC(C)C[C@H](NC(=O)[C@H](CCS(C)(=O)=O)NC(=O)[C@@H](NC(=O)OC(C)(C)C)C(C)C)[C@@H](O)C[C@@H](C)C(=O)N[C@@H](C)C(=O)NCc1ccccc1 [MMI-009]	89.9	56.2	–	–
CCC[C@H](C[C@H](O)[C@H](CC(C)C)NC(=O)[C@H](CSC)NC(=O)c1cccc(O)c1C)C(=O)N[C@H](C(=O)NCc1ccccc1)C(C)C [MMI-032]	1340	838	–	–
COc1ccc(C(=O)N[C@@H](CCSC)C(=O)N[C@@H](CC(C)C)[C@@H](O)C[C@@H](C)C(=O)N[C@@H](CC(C)C)C(=O)NC(C)C)cc1 [MMI-208]	1950	1220	–	Ki (memapsin 2; [3]): 407 nM
CSCC[C@H](NC(=O)[C@@H](NC(=O)OC(C)(C)C)C(C)C)C(=O)N[C@@H](CC(C)C)[C@@H](O)C[C@@H](C)C(=O)N[C@@H](C(C)C)C1CCCO1 (some centres unmarked) [MMI-154]	–	–	0.1	–
CSCC[C@H](NC(=O)[C@H](C)NC(=O)[C@H](C)C[C@H](O)[C@H](CC(C)C)NC(=O)OC(C)(C)C)C(=O)NCc1ccccc1 [MMI-002]	–	274000	–	–
CSCC[C@H](NC(=O)[C@@H](NC(=O)OC(C)(C)C)C(C)C)C(=O)N[C@@H](CC(C)C)[C@@H](O)C[C@@H](C)C(=O)N[C@@H](CC(C)C)C(=O)NC1Cc2ccccc2C1 [MMI-066]	21.2	13.2	–	–
CSCC[C@H](NC(=O)OCc1c(C)ncn1C)C(=O)N[C@@H](CC(C)C)[C@@H](O)C[C@@H](C)C(=O)N[C@H](C(=O)NCC(C)C)C(C)C [MMI-189]	358	224	–	–
CC(C)C[C@H](NC(=O)[C@@H]1CC(=O)NCCCCCOC(=O)N[C@@H](C(C)C)C(=O)N1)[C@@H](O)C[C@@H](C)C(=O)N[C@H](C(=O)NCc1ccccc1)C(C)C [MMI-153]	–	–	0.68	–
CSCCC(NC(=O)[C@H](CC(C)C)NC(=O)OC(C)(C)C)C(=O)N[C@@H](CC(C)C)[C@@H](O)C[C@@H](C)C(=O)N[C@@H](CC(C)C)C(=O)NCc1ccccc1 (some centres unmarked) [MMI-097]	82.8	51.7	–	–

Source: US20040121947A1, “Compounds which inhibit beta-secretase activity and methods of use thereof” (Oklahoma Medical Research Foundation, priority 2000, published 2004)
